In patent publication US20250388605A1, “HETEROBIFUNCTIONAL COMPOUNDS AND METHODS OF TREATING DISEASE” (Halda Therapeutics OpCo, Inc., priority 2022, published 2025):
pIC50: −log10 of the molar value.

Key:
[1] = biological target: T1, progesterone receptor ligand binding domain (GST-tagged PR LBD) (Homo sapiens, UniProt P06401); test: FP Assay for Binding Affinity to Progesterone Receptor (PolarScreen Progesterone Receptor Competitor Assay Kit); details: fluorescence polarization, Fluormone tracer, 2 hours at room temperature
T1 construct: purchased Life Technologies A15905 or a15906
T1 sequence (P06401 679-913 limits assumed): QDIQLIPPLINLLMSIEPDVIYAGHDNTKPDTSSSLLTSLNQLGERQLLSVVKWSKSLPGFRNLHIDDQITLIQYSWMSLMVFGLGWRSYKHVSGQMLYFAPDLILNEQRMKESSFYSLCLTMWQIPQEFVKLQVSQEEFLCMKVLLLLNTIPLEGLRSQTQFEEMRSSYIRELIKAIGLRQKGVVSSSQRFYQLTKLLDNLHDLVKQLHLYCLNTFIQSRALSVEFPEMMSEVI
Method: Exemplary compounds were tested for ability to bind to the progesterone receptor ligand binding domain (LBD).
Compounds were tested using the PolarScreen™ Progesterone Receptor Competitor Assay Kit (Life Technologies Cat #A15905 or a15906), as per the manufacturer's instructions. Briefly, GST-tagged PR LBD, Fluormone tracer, and compound were mixed and incubated for 2 hours at room temperature in the dark. Following incubation, the plates were spun at 3000×g for 30 seconds, then sealed with an optical adhesive cover, and fluorescence polarization was measured using appropriate excitation and emission filters with an EnVision Plate Reader (Perkin Elmer). Compound concentration vs. mP value were plotted in Prism (GraphPad). A four-parameter non-linear regression curve fit was applied to dose-response data to determine the half-maximal inhibitory concentration (IC50) for each test compound.

[2] = test system: T-Rex 293 cell line SC cells lacking increased expression of progesterone receptor isoform B protein; test: Cellular growth inhibition assay, T-Rex 293 SC cells not exposed to doxycycline (no increased progesterone receptor isoform B expression), CellTiter-Glo; type: cell-based; details: T-Rex 293 SC cells without doxycycline (no increased PR isoform B), 72 hours
Method: (§1) The SC cells were seeded on poly-D-lysine coated, black clear-bottom 384-well plates at 2500/well, in 25 μL Phenol Red Free Dulbecco's Modified Eagle Medium (DMEM) supplemented with 10% w/w charcoal-dextran treated fetal bovine serum (FBS) and 1% w/w pen-strep, with or without 10 ng/mL doxycycline. Pen-Strep is a commercially available mixture of penicillin G and streptomycin, which is used in mammalian cell culture media to prevent bacterial contamination. Phenol Red Free Dulbecco's Modified Eagle Medium (DMEM) supplemented with 10% w/w charcoal-dextran treated fetal bovine serum (FBS) and 1% w/w pen-strep, with or without 10 ng/mL doxycycline is herein referred to as Treatment Medium. Following seeding of cells in the plates, the plates were spun at 300×g for 30 seconds, then equilibrated to room temperature for 30 minutes, and then deposited in a humidified tissue culture incubator maintained at 37° C. with 5% CO2.
(§2) At 24 hours after seeding of the cells, dilutions of test compound were prepared in DMSO and dissolved in Treatment Medium, to achieve a final DMSO concentration of 0.5% w/w, thereby providing the Test Compound Solution. A 25 μL aliquot of the Test Compound Solution was added to cells in the well plates. An equal volume of a solution containing DMSO and Treatment Medium was used as a negative control. Following treatment of cells with Test Compound Solution or said equal volume of a solution containing DMSO and Treatment Medium, the plates were spun at 300×g for 30 seconds, and then left in an incubator for 72 hours.
(§3) At the end of the treatment duration, cell viability was quantified with CellTiter-Glo 2.0 reagent (Promega Cat #G9243). For this purpose, plates were equilibrated to room temperature for 30 minutes, and then 25 μL of CellTiter-Glo 2.0 reagent was added to cells in the plate wells. Plates were then agitated on a shaker for two minutes at 500 rpm and subsequently incubated at room temperature for 10 minutes. Following incubation, the plates were spun at 3000×g for 30 seconds, then sealed with an optical adhesive cover, and luminescence readings were measured with an EnVision Plate Reader (Perkin Elmer).
(§4) Data was normalized using zero luminescence for baseline. A four-parameter non-linear regression curve fit was applied to dose-response data in GraphPad Prism data analysis software to determine the half-maximal growth inhibitory concentration (GI50) for each test compound.

[3] = test system: T-Rex 293 cell line SC cells having increased expression of progesterone receptor isoform B protein; test: Cellular growth inhibition assay, T-Rex 293 SC cells exposed to doxycycline (increased progesterone receptor isoform B expression), CellTiter-Glo; type: cell-based; details: T-Rex 293 SC cells with 10 ng/mL doxycycline (increased PR isoform B), 72 hours
Method: as §1, §2, §3, §4

For `CCS(=O)(=O)c1ccc(OC(CCCCN2CCN(c3ncc(C(=O)NC4C(C)(C)C(Oc5ccc(C#N)c(Cl)c5)C4(C)C)cn3)CC2)C2CC2)c(-c2cn(C)c(=O)c3[nH]ccc23)c1` (stereo not drawn) [Compound I-223, N-[3-(3-chloro-4-cyano-phenoxy)-2,2,4,4-tetramethyl-cyclobutyl]-2-[4-[5-cyclopropyl-5-[4-ethylsulfonyl-2-(6-methyl-7-oxo-1H-pyrrolo[2,3-c]pyridin-4-yl)phenoxy]pentyl]piperazin-1-yl]pyrimidine-5-carboxamide], the pIC50 [1] was 6.30 to 7.30.

Work on `Cn1cc(-c2cc(C(C)(C)O)ccc2Oc2ccc(N3CC4(C3)CN(c3ncc(C(=O)N[C@H]5C(C)(C)[C@H](Oc6ccc(C#N)c(Cl)c6)C5(C)C)cn3)CCO4)cc2)c2cc[nH]c2c1=O` [Compound I-212] yielded a pIC50 [1] of 6.30 to 7.30.

In the case of `Cn1cc(-c2cc(C(C)(C)O)ccc2Oc2cccc(OCCN3CCN(c4ncc(C(=O)N[C@H]5C(C)(C)[C@H](Oc6ccc(C#N)c(Cl)c6)C5(C)C)cn4)CC3)c2F)c2cc[nH]c2c1=O` [Compound I-99], the pIC50 [1] was 6.30 to 7.30.

`CCS(=O)(=O)Nc1ccc(Oc2cccc(OCCOCCOCCOC3CCN(c4ncc(C(=O)N[C@H]5C(C)(C)[C@H](Oc6ccc(C#N)c(Cl)c6)C5(C)C)cn4)CC3)c2)c(-c2cn(C)c(=O)c3[nH]ccc23)c1` [Compound I-7] was tested, and the GI50 [2] was less than 0.5 µM and the GI50 [3] was less than 0.5 µM.

Work on `CN(c1ccc(Oc2ccc(C(C)(C)O)cc2-c2cn(C)c(=O)c3[nH]ccc23)cc1)C1CCN(c2ncc(C(=O)N[C@H]3C(C)(C)[C@H](Oc4ccc(C#N)c(Cl)c4)C3(C)C)cn2)CC1` [Compound I-197] yielded a GI50 [2] of less than 0.5 µM and a GI50 [3] of less than 0.5 µM.

With `CCS(=O)(=O)Nc1ccc(Oc2cccc(OCCOC3CCN(c4cnc(C(=O)N[C@H]5C(C)(C)[C@H](Oc6ccc(C#N)c(Cl)c6)C5(C)C)cn4)CC3)c2)c(-c2cn(C)c(=O)c3[nH]ccc23)c1` [Compound I-71, N-((1r, 3r)-3-(3-chloro-4-cyanophenoxy)-2,2,4,4-tetramethylcyclobutyl)-5-(4-(2-(3-(4-(ethylsulfonamido)-2-(6-methyl-7-oxo-6,7-dihydro-1H-pyrrolo[2,3-c]pyridin-4-yl)phenoxy)phenoxy)ethoxy)piperidin-1-yl)pyrazine-2-carboxamide] the GI50 [2] was less than 0.5 µM and the GI50 [3] was less than 0.5 µM.

Compound `CCS(=O)(=O)Nc1ccc(Oc2cccc(OCCOCCOCCOCCOCCN(C)c3ncc(C(=O)N[C@H]4C(C)(C)[C@H](Oc5ccc(C#N)c(Cl)c5)C4(C)C)cn3)c2)c(-c2cn(C)c(=O)c3[nH]ccc23)c1` [Compound I-3] has a GI50 [2] of 0.5 to 1.5 µM and a GI50 [3] of less than 0.5 µM.

For `Cn1cc(-c2cc(C(C)(C)O)ccc2Oc2cccc(N3CC(N4CCN(c5ncc(C(=O)N[C@H]6C(C)(C)[C@H](Oc7ccc(C#N)c(Cl)c7)C6(C)C)cn5)CC4)C3)c2F)c2cc[nH]c2c1=O` [Compound I-92, N-((1r, 3r)-3-(3-chloro-4-cyanophenoxy)-2,2,4,4-tetramethylcyclobutyl)-2-(4-(1-(2-fluoro-3-(4-(2-hydroxypropan-2-yl)-2-(6-methyl-7-oxo-6,7-dihydro-1H-pyrrolo[2,3-c]pyridin-4-yl)phenoxy)phenyl)azetidin-3-yl)piperazin-1-yl)pyrimidine-5-carboxamide], the GI50 [2] was less than 0.5 µM and the GI50 [3] was less than 0.5 µM.

In the case of `CC(C)N(CC1CCN(c2ncc(C(=O)N[C@H]3C(C)(C)[C@H](Oc4ccc(C#N)c(Cl)c4)C3(C)C)cn2)CC1)[C@H]1C[C@H](Oc2cccc(Oc3ccc(C(C)(C)O)cc3-c3cn(C)c(=O)c4[nH]ccc34)c2F)C1` [Compound I-214], the pIC50 [1] was greater than 7.30.

`Cn1cc(-c2cc(C(C)(C)O)ccc2Oc2cccc(N3CC(OC4CCN(c5ncc(C(=O)N[C@H]6C(C)(C)[C@H](Oc7ccc(C#N)c(Cl)c7)C6(C)C)cn5)CC4)C3)c2F)c2cc[nH]c2c1=O` [Compound I-190] gave a GI50 [2] of less than 0.5 µM and a GI50 [3] of less than 0.5 µM.

Compound `CCS(=O)(=O)Nc1ccc(Oc2cccc(OCCOC3CCN(c4ccc(C(=O)N[C@H]5C(C)(C)[C@H](Oc6ccc(C#N)c(Cl)c6)C5(C)C)cn4)CC3)c2)c(-c2cn(C)c(=O)c3[nH]ccc23)c1` [Compound I-70, N-((1r, 3r)-3-(3-chloro-4-cyanophenoxy)-2,2,4,4-tetramethylcyclobutyl)-6-(4-(2-(3-(4-(ethylsulfonamido)-2-(6-methyl-7-oxo-6,7-dihydro-1H-pyrrolo[2,3-c]pyridin-4-yl)phenoxy)phenoxy)ethoxy)piperidin-1-yl)nicotinamide] has a GI50 [2] of less than 0.5 µM and a GI50 [3] of less than 0.5 µM.

Compound `Cc1ccc(CCCOC2CCN(c3ncc(C(=O)N[C@H]4C(C)(C)[C@H](Oc5ccc(C#N)c(Cl)c5)C4(C)C)cn3)CC2)c(C)c1Oc1ccc(C(C)(C)O)cc1-c1cn(C)c(=O)c2[nH]ccc12` [Compound I-195] has a GI50 [2] greater than 3 µM and a GI50 [3] of less than 0.5 µM.

In the case of `CCS(=O)(=O)c1ccc(Oc2cccc(OCCN3CCN(c4ncc5c(n4)CN([C@H]4C(C)(C)[C@H](Oc6ccc(C#N)c(Cl)c6)C4(C)C)C5=O)CC3)c2F)c(-c2cn(C)c(=O)c3[nH]ccc23)c1` [Compound I-217], the pIC50 [1] was greater than 7.30.

`CCS(=O)(=O)Nc1ccc(Oc2cccc(OCCN(C)c3ncc(C(=O)N[C@H]4C(C)(C)[C@H](Oc5ccc(C#N)c(Cl)c5)C4(C)C)cn3)c2)c(-c2cn(C)c(=O)c3[nH]ccc23)c1` [Compound I-1, N-((1r, 3r)-3-(3-chloro-4-cyanophenoxy)-2,2,4,4-tetramethylcyclobutyl)-2-((2-(3-(4-(ethylsulfonamido)-2-(6-methyl-7-oxo-6,7-dihydro-1H-pyrrolo[2,3-c]pyridin-4-yl)phenoxy)phenoxy)ethyl)(methyl)amino)pyrimidine-5-carboxamide] showed a GI50 [2] of less than 0.5 µM and a GI50 [3] of less than 0.5 µM.

`Cn1cc(-c2cc(C(C)(C)O)ccc2Oc2cccc(N3CC4(CN(c5ncc(C(=O)N[C@H]6C(C)(C)[C@H](Oc7ccc(C#N)c(Cl)c7)C6(C)C)cn5)CCO4)C3)c2F)c2cc[nH]c2c1=O` [Compound I-216] was tested, and the pIC50 [1] was 6.30 to 7.30.

Compound `Cn1cc(-c2cc(C(C)(C)O)ccc2Oc2cccc(N3CC(CC4CCN(c5ncc(C(=O)N[C@H]6C(C)(C)[C@H](Oc7ccc(C#N)c(Cl)c7)C6(C)C)cn5)CC4)C3)c2F)c2cc[nH]c2c1=O` [Compound I-196] has a GI50 [2] greater than 3 µM and a GI50 [3] of less than 0.5 µM.

Compound `CCS(=O)(=O)Nc1ccc(Oc2ccc(F)c(OCCOC3CCN(c4ncc(C(=O)N[C@H]5C(C)(C)[C@H](Oc6ccc(C#N)c(Cl)c6)C5(C)C)cn4)CC3)c2F)c(-c2cn(C)c(=O)c3[nH]ccc23)c1` [Compound I-65] has a GI50 [2] of less than 0.5 µM and a GI50 [3] of less than 0.5 µM.

Compound `CCS(=O)(=O)Nc1ccc(Oc2cccc(COC3CCN(c4ncc(C(=O)N[C@H]5C(C)(C)[C@H](Oc6ccc(C#N)c(Cl)c6)C5(C)C)cn4)CC3)c2)c(-c2cn(C)c(=O)c3[nH]ccc23)c1` [Compound I-18, N-((1r, 3r)-3-(3-chloro-4-cyanophenoxy)-2,2,4,4-tetramethylcyclobutyl)-2-(4-((3-(4-(ethylsulfonamido)-2-(6-methyl-7-oxo-6,7-dihydro-1H-pyrrolo[2,3-c]pyridin-4-yl)phenoxy)benzyl)oxy)piperidin-1-yl)pyrimidine-5-carboxamide] has a GI50 [2] of less than 0.5 µM and a GI50 [3] of less than 0.5 µM.

`CCS(=O)(=O)Nc1ccc(Oc2cccc(OCCOC3CCN(c4ncc(C(=O)N[C@H]5C(C)(C)[C@H](Oc6ccc(C#N)c(Cl)c6)C5(C)C)cn4)CC3)c2)c(-c2cn(C)c(=O)c3[nH]ccc23)c1` [Compound I-6] gave a GI50 [2] of less than 0.5 µM and a GI50 [3] of less than 0.5 µM.

For `CCS(=O)(=O)Nc1ccc(Oc2cccc(N3CC(OC4CCN(c5ncc(C(=O)N[C@H]6C(C)(C)[C@H](Oc7ccc(C#N)c(Cl)c7)C6(C)C)cn5)CC4)C3)c2)c(-c2cn(C)c(=O)c3[nH]ccc23)c1` [Compound I-80], the pIC50 [1] was less than 5.60.
